Results reported in article doi:10.1101/679977v1 (bioRxiv, 2019).
Square brackets hold non-standard residues; d marks the D form. Ends that are not written are not given here. Peptide text beside a SMILES is read from it.

Experiments:
Beneficial strains = assay: Geometric mean of MICs; type: cell-based; settings: geometric mean of MICs against beneficial strains; >128 counted as 256 μM
E. coli = assay: Geometric mean of MICs, selectivity and targeting indices; type: cell-based; settings: for TI Beneficial strains (targeting index): GM(E. coli)/GM(beneficial strains); for TI Beneficial strains (targeting index) / TI Pathogenic strains (targeting index): smaller = greater specificity; for TI Pathogenic strains (targeting index): GM(E. coli)/GM(other pathogenic strains); for TI All (TIall, targeting index): all strains, smaller = greater specificity for E. coli; for GM E. coli: geometric mean of MICs against the 6 E. coli strains, >128 counted as 256 μM; for SI E. coli (selectivity index): MHC/GM (E. coli), MHC >128 counted as 256 μM, larger = greater cell selectivity
E. coli ATCC25922 = assay: Salt, serum, acid and alkaline sensitivity; type: cell-based; settings: for MIC, Control: absence of physiological salts, serum, acid and alkaline; for MIC, FeCl3: in presence of 4μM FeCl3 (final); for MIC, MgCl2: in presence of 1 mM MgCl2; for MIC, KCl: in presence of 4.5 mM KCl (final); for MIC, NaCl: in presence of 150 mM NaCl (final); for MIC, PH=2: peptide incubated at pH=2 for 4 h prior to MIC determination; for MIC, PH=4: peptide incubated at pH=4 for 4 h prior to MIC determination; for MIC, PH=10: peptide incubated at pH=10 for 4 h prior to MIC determination; for MIC, PH=12: peptide incubated at pH=12 for 4 h prior to MIC determination
HEK293T cells = assay: Cytotoxicity MTT assay; type: cell-based, human; settings: 24 h, 37°C, 128 μM peptide, three independent assays
IPEC-J2 cells = assay: Cytotoxicity MTT assay; type: cell-based, porcine; settings: 24 h, 37°C, 128 μM peptide, three independent assays
E. coli 25922 = assay: Outer membrane permeability; type: cell-based; settings: 2 μM peptide, relative to 10 μg/mL polymyxin B, 5 mM HEPES pH 7.4

| Compound | GM Beneficial strains (Beneficial strains) [µM] | TI Beneficial strains (targeting index) (E. coli) | TI Pathogenic strains (targeting index) (E. coli) | TI All (TIall, targeting index) (E. coli) | GM E. coli (E. coli) [µM] | MIC, Control (E. coli ATCC25922) [µM] | MIC, FeCl3 (E. coli ATCC25922) [µM] | MIC, MgCl2 (E. coli ATCC25922) [µM] | MIC, KCl (E. coli ATCC25922) [µM] | MIC, NaCl (E. coli ATCC25922) [µM] | MIC, PH=2 (E. coli ATCC25922) [µM] | MIC, PH=4 (E. coli ATCC25922) [µM] | MIC, PH=10 (E. coli ATCC25922) [µM] | MIC, PH=12 (E. coli ATCC25922) [µM] | cells killed (HEK293T cells) | cells killed (IPEC-J2 cells) | SI E. coli (selectivity index) (E. coli) | TIall lower than that of melittin (E. coli; from TIall) [times] | increase of specificity for E. coli relative to parental peptide 2 (E. coli; from TIall) [times] | outer membrane permeability (NPN uptake) (E. coli 25922) [%] |
| --- | --- | --- | --- | --- | --- | --- | --- | --- | --- | --- | --- | --- | --- | --- | --- | --- | --- | --- | --- | --- |
| CC[C@H](C)[C@H](NC(=O)CNC(=O)[C@H]1CCCN1C(=O)[C@H](CCCCN)NC(=O)[C@H](Cc1c[nH]c2ccccc12)NC(=O)[C@@H](NC(=O)[C@H](CCCCN)NC(=O)[C@H](CCCCN)NC(=O)[C@H](Cc1c[nH]c2ccccc12)NC(=O)[C@@H](NC(=O)[C@H](CCCCN)NC(=O)[C@H](CCCCN)NC(=O)[C@@H](N)Cc1c[nH]c2ccccc12)[C@@H](C)CC)[C@@H](C)CC)C(=O)N[C@@H](CCCCN)C(=O)N[C@@H](CCCCN)C(=O)N[C@@H](Cc1c[nH]c2ccccc12)C(=O)N[C@H](C(=O)N[C@@H](CCCCN)C(=O)N[C@@H](CCCCN)C(=O)N[C@@H](Cc1c[nH]c2ccccc12)C(=O)N[C@H](C(=O)N[C@@H](CCCCN)C(=O)O)[C@@H](C)CC)[C@@H](C)CC [Peptide 4] (H-WKKIWKKIWK[dP]GIKKWIKKWIK-OH; N-terminus and C-terminus assumed) | 50.797 | 0.022 | 0.445 | 0.233 | 1.122 | 2 | 2 | 2 | 2 | 2 | 2 | 2 | 2 | 2 | approximately 99% | approximately 99% | – | – | – | – |
| CC[C@H](C)[C@H](NC(=O)CNC(=O)[C@H]1CCCN1C(=O)[C@H](CCCCN)NC(=O)[C@H](Cc1c[nH]c2ccccc12)NC(=O)[C@@H](NC(=O)[C@H](CCCCN)NC(=O)[C@@H](NC(=O)[C@@H](N)Cc1c[nH]c2ccccc12)[C@@H](C)CC)[C@@H](C)CC)C(=O)N[C@@H](CCCCN)C(=O)N[C@@H](CCCCN)C(=O)N[C@@H](Cc1c[nH]c2ccccc12)C(=O)N[C@H](C(=O)N[C@@H](CCCCN)C(=O)O)[C@@H](C)CC [Peptide 7] (H-WIKIWK[dP]GIKKWIK-OH; N-terminus and C-terminus assumed) | 256.000 | 0.099 | 0.111 | 0.105 | 25.398 | 32 | 32 | >64 | 32 | >64 | 32 | 32 | 32 | 32 | – | – | 10.080 | – | – | – |
| CC[C@H](C)[C@H](NC(=O)CNC(=O)[C@H]1CCCN1C(=O)[C@H](CCCCN)NC(=O)[C@H](Cc1c[nH]c2ccccc12)NC(=O)[C@@H](NC(=O)[C@H](CCCCN)NC(=O)[C@H](CCCCN)NC(=O)[C@@H](N)Cc1c[nH]c2ccccc12)[C@@H](C)CC)C(=O)N[C@@H](CCCCN)C(=O)N[C@@H](CCCCN)C(=O)N[C@@H](Cc1c[nH]c2ccccc12)C(=O)N[C@@H](CCCCN)C(=O)N[C@@H](CCCCN)C(=O)O [Peptide 8] (H-WKKIWK[dP]GIKKWKK-OH; N-terminus and C-terminus assumed) | 256.000 | 0.079 | 0.079 | 0.079 | 20.159 | 16 | 16 | 32 | 16 | >64 | 64 | 32 | 16 | 64 | – | – | 12.699 | – | – | – |
| CC[C@H](C)[C@H](NC(=O)CNC(=O)[C@H]1CCCN1C(=O)[C@H](CCCCN)NC(=O)[C@H](Cc1c[nH]c2ccccc12)NC(=O)[C@@H](NC(=O)[C@H](CCCCN)NC(=O)[C@@H](NC(=O)[C@@H](N)Cc1c[nH]c2ccccc12)[C@@H](C)CC)[C@@H](C)CC)C(=O)N[C@@H](CCCCN)C(=O)N[C@@H](CCCCN)C(=O)N[C@@H](Cc1c[nH]c2ccccc12)C(=O)N[C@@H](CCCCN)C(=O)N[C@@H](CCCCN)C(=O)O [Peptide 9] (H-WIKIWK[dP]GIKKWKK-OH; N-terminus and C-terminus assumed) | 161.270 | 0.111 | 0.088 | 0.100 | 17.959 | 16 | 16 | 64 | 32 | >64 | 32 | 32 | 16 | 16 | – | – | 14.255 | – | – | – |
| CC[C@H](C)[C@H](NC(=O)CNC(=O)[C@H]1CCCN1C(=O)[C@H](CCCCN)NC(=O)[C@H](Cc1c[nH]c2ccccc12)NC(=O)[C@@H](NC(=O)[C@H](CCCCN)NC(=O)[C@H](CCCCN)NC(=O)[C@@H](N)Cc1c[nH]c2ccccc12)[C@@H](C)CC)C(=O)N[C@@H](CCCCN)C(=O)N[C@@H](CCCCN)C(=O)N[C@@H](Cc1c[nH]c2ccccc12)C(=O)N[C@H](C(=O)N[C@@H](CCCCN)C(=O)NCC(=O)NCC(=O)NCC(=O)N[C@@H](CCC(N)=O)C(=O)N[C@@H](CCCCN)C(=O)N[C@@H](CCCNC(=N)N)C(=O)N1CCC[C@H]1C(=O)N[C@@H](CCCNC(=N)N)C(=O)N[C@H](C(=O)N[C@@H](CCCNC(=N)N)C(=O)N[C@@H](CC(C)C)C(=O)N[C@@H](CO)C(=O)N[C@@H](C)C(=O)O)C(C)C)[C@@H](C)CC [Peptide 11] (H-WKKIWK[dP]GIKKWIKGGGQKRPRVRLSA-OH; N-terminus and C-terminus assumed) | 256.000 | – | 0.020 | 0.028 | 3.175 | 2 | 4 | 16 | 2 | 32 | 4 | 4 | 2 | 4 | – | – | 80.630 | 31 | 2.4 | 61 |
| CC[C@H](C)[C@H](NC(=O)CNC(=O)[C@H]1CCCN1C(=O)[C@H](CCCCN)NC(=O)[C@H](Cc1c[nH]c2ccccc12)NC(=O)[C@@H](NC(=O)[C@H](CCCCN)NC(=O)[C@H](CCCCN)NC(=O)[C@H](Cc1c[nH]c2ccccc12)NC(=O)CNC(=O)CNC(=O)CNC(=O)[C@H](C)NC(=O)[C@H](CO)NC(=O)[C@H](CC(C)C)NC(=O)[C@H](CCCNC(=N)N)NC(=O)[C@@H](NC(=O)[C@H](CCCNC(=N)N)NC(=O)[C@@H]1CCCN1C(=O)[C@H](CCCNC(=N)N)NC(=O)[C@H](CCCCN)NC(=O)[C@@H](N)CCC(N)=O)C(C)C)[C@@H](C)CC)C(=O)N[C@@H](CCCCN)C(=O)N[C@@H](CCCCN)C(=O)N[C@@H](Cc1c[nH]c2ccccc12)C(=O)N[C@H](C(=O)N[C@@H](CCCCN)C(=O)O)[C@@H](C)CC [Peptide 12] (H-QKRPRVRLSAGGGWKKIWK[dP]GIKKWIK-OH; N-terminus and C-terminus assumed) | 256.000 | 0.031 | 0.039 | 0.035 | 8.000 | 8 | 8 | 32 | 8 | >64 | 16 | 8 | 16 | 16 | – | – | 32.000 | – | – | – |
| QKRPRVRLSA [Peptide 14, reference compound] | 256.000 | 0.397 | 0.397 | 0.397 | 101.594 | 64 | >64 | >64 | >64 | >64 | 64 | >64 | >64 | 64 | – | – | 2.520 | – | – | – |
| WIKIWKKIIKKWKK [Peptide 10] | 181.019 | – | 0.707 | 0.376 | 6.350 | 8 | 8 | 64 | 8 | 32 | 8 | 8 | 8 | 8 | approximately 99% | ~63% | 40.315 | – | – | – |
